Source: patent US20070128217A1 (priority 2003, published 2007)

Key:
[1] = tested on: control sera (pooled serum of ten healthy LUMC hospital workers; commercial negative donor pooled serum from the Dutch bloodbank); assay type: binding, human; set-up: Binding of Control serum LUMC to linear peptides / Binding of Control serum Blood-bank to linear peptides / Binding of Control serum LUMC to looped peptides / Binding of Control Serum Blood-Bank to Looped peptides / Binding of Control serum LUMC to linear peptides of the protein M of SARS-CoV Urbani / Binding of Control serum Blood-bank to linear peptides of the protein M of SARS-CoV Urbani / Binding of Control serum LUMC to looped peptides of the protein M of SARS-CoV Urbani / Binding of Control Serum Blood-Bank to Looped peptides of the protein M of SARS-CoV Urbani: unit not given here
[2] = tested on: rabbit serum obtained by immunizing a rabbit with the SARS-CoV strain Frankfurt 1; assay type: binding; set-up: Binding of a rabbit serum to linear peptides / Binding of a rabbit serum to looped peptides / Rabbit serum linear peptides / Rabbit serum looped peptides / Binding of a rabbit serum to linear peptides of protein N of SARS-CoV Urbani (Rabbit serum linear peptides) / Binding of a rabbit serum to looped/cyclic peptides of protein N of SARS-CoV Urbani (Rabbit serum looped peptides): unit not given here
[3] = tested on: antibodies in sera from SARS patients (sera 1a, 1b, 2, 6, 37, 62, London, SARS-yellow, SARS-green); assay type: binding, human; set-up: Binding of serum 6 to linear peptides of protein X1 of SARS-CoV Urbani / Binding of serum 37 to linear peptides of protein X1 of SARS-CoV Urbani / Binding of serum 6 to looped/cyclic peptide (PEPSCAN-ELISA) / Binding of serum 37 to looped/cyclic peptide (PEPSCAN-ELISA) / Binding of serum 37 to looped/cyclic peptides of protein X1 of SARS-CoV Urbani / Binding of serum 6 to linear peptides of protein X2 / Binding of serum 37 to linear peptides of protein X2 / Binding of serum 37 to looped/cyclic peptides of protein X2 of SARS-CoV Urbani / Binding of serum 6 to linear peptides of protein M of SARS-CoV Urbani / Binding of serum 37 to linear peptides of protein M of SARS-CoV Urbani / Binding of serum 6 to looped/cyclic peptides of protein M of SARS-CoV Urbani / Binding of serum 37 to looped/cyclic peptides of protein M of SARS-CoV Urbani / Binding of serum 6 to linear peptides of protein X3 of SARS-CoV Urbani / Binding of serum 37 to linear peptides of protein X3 of SARS-CoV Urbani / Binding of serum 37 to looped/cyclic peptides of protein X3 of SARS-CoV Urbani / Binding of serum 6 to linear peptides of protein X4 of SARS-CoV Urbani / Binding of serum 37 to linear peptides of protein X4 of SARS-CoV Urbani / Binding of serum 37 to looped/cyclic peptides of protein X4 of SARS-CoV Urbani / Binding of serum 6 to linear peptides of protein X5 of SARS-CoV Urbani / Binding of serum 37 to linear peptides of protein X5 of SARS-CoV Urbani / Binding of serum 37 to looped/cyclic peptides of protein X5 of SARS-CoV Urbani / Binding of serum 6 to linear peptides of protein N of SARS-CoV Urbani / Binding of serum 37 to linear peptides of protein N of SARS-CoV Urbani / Binding of serum 6 to linear peptide (PEPSCAN-ELISA) / Binding of serum 1a to looped/cyclic peptides of protein N of SARS-CoV Urbani / Binding of serum 1b to looped/cyclic peptides of protein N of SARS-CoV Urbani / Binding of serum 2 to looped/cyclic peptides of protein N of SARS-CoV Urbani / Binding of serum 6 to looped/cyclic peptides of protein N of SARS-CoV Urbani / Binding of serum 37 to looped/cyclic peptides of protein N of SARS-CoV Urbani / Binding of serum 62 to looped/cyclic peptides of protein N of SARS-CoV Urbani / Binding of serum London to looped/cyclic peptides of protein N of SARS-CoV Urbani / Binding of serum SARS-green to looped/cyclic peptides of protein N of SARS-CoV Urbani: unit not given here

FACADGTRHTYQLRA
Binding of Control Serum Blood-Bank to Looped peptides [1]: 0.3
Binding of Control serum Blood-bank to linear peptides [1]: 0.7
Binding of Control serum LUMC to linear peptides [1]: 0.4
Binding of Control serum LUMC to looped peptides [1]: 0.4
Recognition of the peptide by the rabbit serum [2]: recognized
Binding of serum 1a to linear peptides of protein X4 of SARS-CoV Urbani [3]: 0.7
Binding of serum 1a to looped/cyclic peptides of protein X4 of SARS-CoV Urbani [3]: 0.7
Binding of serum 1b to linear peptides of protein X4 of SARS-CoV Urbani [3]: 0.4
Binding of serum 1b to looped/cyclic peptides of protein X4 of SARS-CoV Urbani [3]: 0.6
Binding of serum 2 to linear peptides of protein X4 of SARS-CoV Urbani [3]: 0.4
Binding of serum 2 to looped/cyclic peptides of protein X4 of SARS-CoV Urbani [3]: 0.6
Binding of serum 6 to linear peptides of protein X4 of SARS-CoV Urbani [3]: 0.4
Binding of serum 6 to looped/cyclic peptides of protein X4 of SARS-CoV Urbani [3]: 0.3
Binding of serum 37 to linear peptides of protein X4 of SARS-CoV Urbani [3]: 0.6
Binding of serum 37 to looped/cyclic peptides of protein X4 of SARS-CoV Urbani [3]: 0.7
Binding of serum 62 to linear peptides of protein X4 of SARS-CoV Urbani [3]: 0.7
Binding of serum 62 to looped/cyclic peptides of protein X4 of SARS-CoV Urbani [3]: 0.7
Binding of serum London to linear peptides of protein X4 of SARS-CoV Urbani [3]: 0.8
Binding of serum London to looped/cyclic peptides of protein X4 of SARS-CoV Urbani [3]: 0.4
Binding of serum SARS-green to linear peptides of protein X4 of SARS-CoV Urbani [3]: 0.5
Binding of serum SARS-green to looped/cyclic peptides of protein X4 of SARS-CoV Urbani [3]: 0.8
Binding of serum SARS-yellow to linear peptides of protein X4 of SARS-CoV Urbani [3]: 0.2
Binding of serum SARS-yellow to looped/cyclic peptides of protein X4 of SARS-CoV Urbani [3]: 0.3

ITVATSRTLSYYKLG
Binding of Control Serum Blood-Bank to Looped peptides of the protein M of SARS-CoV Urbani [1]: 0.5
Binding of Control serum Blood-bank to linear peptides of the protein M of SARS-CoV Urbani [1]: 0.8
Binding of Control serum LUMC to linear peptides of the protein M of SARS-CoV Urbani [1]: 0.7
Binding of Control serum LUMC to looped peptides of the protein M of SARS-CoV Urbani [1]: 0.6
Rabbit serum linear peptides [2]: 0.2
Rabbit serum looped peptides [2]: 0.4
Binding of serum 1a to linear peptides of protein M of SARS-CoV Urbani [3]: 0.6
Binding of serum 1a to looped/cyclic peptides of protein M of SARS-CoV Urbani [3]: 1.0
Binding of serum 1b to linear peptides of protein M of SARS-CoV Urbani [3]: 0.4
Binding of serum 1b to looped/cyclic peptides of protein M of SARS-CoV Urbani [3]: 0.6
Binding of serum 2 to linear peptides of protein M of SARS-CoV Urbani [3]: 0.5
Binding of serum 2 to looped/cyclic peptides of protein M of SARS-CoV Urbani [3]: 0.8
Binding of serum 6 to linear peptides of protein M of SARS-CoV Urbani [3]: 0.5
Binding of serum 6 to looped/cyclic peptides of protein M of SARS-CoV Urbani [3]: 1.1
Binding of serum 37 to linear peptides of protein M of SARS-CoV Urbani [3]: 0.4
Binding of serum 37 to looped/cyclic peptides of protein M of SARS-CoV Urbani [3]: 0.3
Binding of serum 62 to linear peptides of protein M of SARS-CoV Urbani [3]: 0.4
Binding of serum 62 to looped/cyclic peptides of protein M of SARS-CoV Urbani [3]: 0.6
Binding of serum London to linear peptides of protein M of SARS-CoV Urbani [3]: 0.3
Binding of serum London to looped/cyclic peptides of protein M of SARS-CoV Urbani [3]: 0.4
Binding of serum SARS-green to linear peptides of protein M of SARS-CoV Urbani [3]: 0.5
Binding of serum SARS-green to looped/cyclic peptides of protein M of SARS-CoV Urbani [3]: 0.4
Binding of serum SARS-yellow to linear peptides of protein M of SARS-CoV Urbani [3]: 0.2
Binding of serum SARS-yellow to looped/cyclic peptides of protein M of SARS-CoV Urbani [3]: 0.4

VLKMLHSSSLTSLLK
Binding of Control Serum Blood-Bank to Looped peptides [1]: 0.5
Binding of Control serum Blood-bank to linear peptides [1]: 0.7
Binding of Control serum LUMC to linear peptides [1]: 0.4
Binding of Control serum LUMC to looped peptides [1]: 0.3
Binding of a rabbit serum to linear peptides [2]: 0.2
Binding of a rabbit serum to looped peptides [2]: 0.3
Binding of serum 1a to linear peptides of protein X2 [3]: 0.6
Binding of serum 1a to looped/cyclic peptides of protein X2 of SARS-CoV Urbani [3]: 0.4
Binding of serum 1b to linear peptides of protein X2 [3]: 0.5
Binding of serum 1b to looped/cyclic peptides of protein X2 of SARS-CoV Urbani [3]: 0.2
Binding of serum 2 to linear peptides of protein X2 [3]: 0.5
Binding of serum 2 to looped/cyclic peptides of protein X2 of SARS-CoV Urbani [3]: 0.1
Binding of serum 6 to linear peptides of protein X2 [3]: 0.5
Binding of serum 6 to looped/cyclic peptides of protein X2 of SARS-CoV Urbani [3]: 0.1
Binding of serum 37 to linear peptides of protein X2 [3]: 0.5
Binding of serum 37 to looped/cyclic peptides of protein X2 of SARS-CoV Urbani [3]: 0.2
Binding of serum 62 to linear peptides of protein X2 [3]: 0.6
Binding of serum 62 to looped/cyclic peptides of protein X2 of SARS-CoV Urbani [3]: 0.4
Binding of serum London to linear peptides of protein X2 [3]: 0.4
Binding of serum London to looped/cyclic peptides of protein X2 of SARS-CoV Urbani [3]: 0.1
Binding of serum SARS-green to linear peptides of protein X2 [3]: 0.5
Binding of serum SARS-green to looped/cyclic peptides of protein X2 of SARS-CoV Urbani [3]: 0.2
Binding of serum SARS-yellow to linear peptides of protein X2 [3]: 0.5
Binding of serum SARS-yellow to looped/cyclic peptides of protein X2 of SARS-CoV Urbani [3]: 0.2

LYMAISPKFTTSLSL
Binding of Control Serum Blood-Bank to Looped peptides [1]: 0.7
Binding of Control serum Blood-bank to linear peptides [1]: 0.6
Binding of Control serum LUMC to linear peptides [1]: 0.3
Binding of Control serum LUMC to looped peptides [1]: 0.8
Binding of a rabbit serum to linear peptides [2]: 0.3
Binding of a rabbit serum to looped peptides [2]: 0.5
Binding of serum 1a to linear peptides of protein X2 [3]: 0.7
Binding of serum 1a to looped/cyclic peptides of protein X2 of SARS-CoV Urbani [3]: 0.6
Binding of serum 1b to linear peptides of protein X2 [3]: 0.5
Binding of serum 1b to looped/cyclic peptides of protein X2 of SARS-CoV Urbani [3]: 0.5
Binding of serum 2 to linear peptides of protein X2 [3]: 0.5
Binding of serum 2 to looped/cyclic peptides of protein X2 of SARS-CoV Urbani [3]: 0.5
Binding of serum 6 to linear peptides of protein X2 [3]: 0.3
Binding of serum 6 to looped/cyclic peptides of protein X2 of SARS-CoV Urbani [3]: 0.5
Binding of serum 37 to linear peptides of protein X2 [3]: 0.6
Binding of serum 37 to looped/cyclic peptides of protein X2 of SARS-CoV Urbani [3]: 0.5
Binding of serum 62 to linear peptides of protein X2 [3]: 0.6
Binding of serum 62 to looped/cyclic peptides of protein X2 of SARS-CoV Urbani [3]: 0.7
Binding of serum London to linear peptides of protein X2 [3]: 0.3
Binding of serum London to looped/cyclic peptides of protein X2 of SARS-CoV Urbani [3]: 0.6
Binding of serum SARS-green to linear peptides of protein X2 [3]: 0.5
Binding of serum SARS-green to looped/cyclic peptides of protein X2 of SARS-CoV Urbani [3]: 0.4
Binding of serum SARS-yellow to linear peptides of protein X2 [3]: 0.6
Binding of serum SARS-yellow to looped/cyclic peptides of protein X2 of SARS-CoV Urbani [3]: 0.5

EGDGISTPKLKEDYQ
Binding of Control Serum Blood-Bank to Looped peptides [1]: 0.4
Binding of Control serum Blood-bank to linear peptides [1]: 0.2
Binding of Control serum LUMC to linear peptides [1]: 0.3
Binding of Control serum LUMC to looped peptides [1]: 0.4
Binding of a rabbit serum to linear peptides [2]: 0.1
Binding of a rabbit serum to looped peptides [2]: 0.4
Binding of serum 1a to linear peptides of protein X1 of SARS-CoV Urbani [3]: 0.6
Binding of serum 1a to looped/cyclic peptides of protein X1 of SARS-CoV Urbani [3]: 0.4
Binding of serum 1b to linear peptides of protein X1 of SARS-CoV Urbani [3]: 0.3
Binding of serum 1b to looped/cyclic peptides of protein X1 of SARS-CoV Urbani [3]: 0.3
Binding of serum 2 to linear peptides of protein X1 of SARS-CoV Urbani [3]: 0.6
Binding of serum 2 to looped/cyclic peptides of protein X1 of SARS-CoV Urbani [3]: 0.2
Binding of serum 6 to linear peptides of protein X1 of SARS-CoV Urbani [3]: 0.3
Binding of serum 6 to looped/cyclic peptides of protein X1 of SARS-CoV Urbani [3]: 0.2
Binding of serum 37 to linear peptides of protein X1 of SARS-CoV Urbani [3]: 0.5
Binding of serum 37 to looped/cyclic peptides of protein X1 of SARS-CoV Urbani [3]: 0.3
Binding of serum 62 to linear peptides of protein X1 of SARS-CoV Urbani [3]: 0.4
Binding of serum 62 to looped/cyclic peptides of protein X1 of SARS-CoV Urbani [3]: 0.3
Binding of serum London to linear peptides of protein X1 of SARS-CoV Urbani [3]: 0.3
Binding of serum London to looped/cyclic peptides of protein X1 of SARS-CoV Urbani [3]: 0.2
Binding of serum SARS-green to linear peptides of protein X1 of SARS-CoV Urbani [3]: 0.2
Binding of serum SARS-green to looped/cyclic peptides of protein X1 of SARS-CoV Urbani [3]: 0.2
Binding of serum SARS-yellow to linear peptides of protein X1 of SARS-CoV Urbani [3]: 0.2
Binding of serum SARS-yellow to looped/cyclic peptides of protein X1 of SARS-CoV Urbani [3]: 0.1
